One compound from ChEMBL document CHEMBL1155303, “Multiple strategies for the preparation of a sulfur-35 labeled NPC1L1 radioligand” (Bioorg Med Chem Lett, 2009) can be followed below.

The target in experiment [1] is T1, NPC1-like intracellular cholesterol transporter 1 (Rattus norvegicus, UniProt Q6T3U3). The experiment in a line: Displacement of [35S](2S,3S,4S,5R,6S)-6-(4-((2S,3R)-3-((S)-3-(4-fluorophenyl)-3-hydroxypropyl)-1-(4-(3-(methylsulfonamido)prop-1-ynyl)phenyl)-4-oxoazetidin-2-yl)phenoxy)-3,4,5-trihydroxytetrahydro-2H-pyran-2-carboxylic acid from rat intestinal brush border membrane NPC1L1 by single tube filtration assay. On the technique in general: Displacement assays read how much labelled ligand stays bound in the presence of the test substance.

The target in experiment [2] is T2, NPC1-like intracellular cholesterol transporter 1 (Homo sapiens, UniProt Q9UHC9).
T2 sequence (Q9UHC9 whole entry): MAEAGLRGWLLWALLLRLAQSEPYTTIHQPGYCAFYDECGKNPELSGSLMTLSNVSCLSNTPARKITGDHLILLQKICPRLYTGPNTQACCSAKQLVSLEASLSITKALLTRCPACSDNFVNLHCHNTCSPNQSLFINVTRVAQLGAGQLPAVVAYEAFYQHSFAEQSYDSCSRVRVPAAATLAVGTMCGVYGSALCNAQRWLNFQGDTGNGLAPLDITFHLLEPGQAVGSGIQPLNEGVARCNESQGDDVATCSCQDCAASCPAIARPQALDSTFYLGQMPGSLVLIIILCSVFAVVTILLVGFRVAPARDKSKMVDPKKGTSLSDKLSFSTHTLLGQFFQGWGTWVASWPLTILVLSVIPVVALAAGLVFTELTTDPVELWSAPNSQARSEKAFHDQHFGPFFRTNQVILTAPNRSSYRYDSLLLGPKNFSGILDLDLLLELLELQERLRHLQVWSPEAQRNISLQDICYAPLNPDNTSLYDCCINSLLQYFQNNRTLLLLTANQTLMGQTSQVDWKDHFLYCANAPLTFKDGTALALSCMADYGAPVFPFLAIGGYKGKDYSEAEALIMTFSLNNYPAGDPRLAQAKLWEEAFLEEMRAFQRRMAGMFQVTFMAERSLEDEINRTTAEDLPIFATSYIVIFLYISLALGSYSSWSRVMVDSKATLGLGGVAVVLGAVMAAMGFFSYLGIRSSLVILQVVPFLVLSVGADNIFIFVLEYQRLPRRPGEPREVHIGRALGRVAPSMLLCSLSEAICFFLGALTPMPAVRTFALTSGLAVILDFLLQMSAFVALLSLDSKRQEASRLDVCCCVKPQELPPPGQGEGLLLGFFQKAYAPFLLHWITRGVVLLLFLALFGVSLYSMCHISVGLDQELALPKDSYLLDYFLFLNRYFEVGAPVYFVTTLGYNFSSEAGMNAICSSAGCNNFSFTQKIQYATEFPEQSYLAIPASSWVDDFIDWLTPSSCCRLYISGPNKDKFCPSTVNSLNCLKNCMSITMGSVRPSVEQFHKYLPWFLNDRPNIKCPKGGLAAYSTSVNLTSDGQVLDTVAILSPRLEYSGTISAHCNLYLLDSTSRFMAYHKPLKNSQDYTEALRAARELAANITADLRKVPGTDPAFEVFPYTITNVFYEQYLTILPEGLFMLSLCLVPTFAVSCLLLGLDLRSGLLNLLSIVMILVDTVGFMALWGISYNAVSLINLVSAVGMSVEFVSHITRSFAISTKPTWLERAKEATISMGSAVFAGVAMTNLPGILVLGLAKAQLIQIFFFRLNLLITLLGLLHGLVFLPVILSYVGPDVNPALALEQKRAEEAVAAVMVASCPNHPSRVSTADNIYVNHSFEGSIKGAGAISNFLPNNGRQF
The experiment in a line: Displacement of [35S](2S,3S,4S,5R,6S)-6-(4-((2S,3R)-3-((S)-3-(4-fluorophenyl)-3-hydroxypropyl)-1-(4-(3-(methylsulfonamido)prop-1-ynyl)phenyl)-4-oxoazetidin-2-yl)phenoxy)-3,4,5-trihydroxytetrahydro-2H-pyran-2-carboxylic acid from recombinant human NPC1L1 expressed in HEK cells by single tube filtration assay. It counts as cell-based, HEK293.

In experiment [3] the target is NPC1-like intracellular cholesterol transporter 1 (Mus musculus, UniProt Q6T3U4). Briefly: Displacement of [35S](2S,3S,4S,5R,6S)-6-(4-((2S,3R)-3-((S)-3-(4-fluorophenyl)-3-hydroxypropyl)-1-(4-(3-(methylsulfonamido)prop-1-ynyl)phenyl)-4-oxoazetidin-2-yl)phenoxy)-3,4,5-trihydroxytetrahydro-2H-pyran-2-carboxylic acid from recombinant mouse NPC1L1 expressed in HEK cells by single tube filtration assay. It is filed as cell-based, HEK293.

Experiment [4] concerns the target T2, NPC1-like intracellular cholesterol transporter 1. Briefly: Displacement of [35S](2S,3S,4S,5R,6S)-6-(4-((2S,3R)-3-((S)-3-(4-fluorophenyl)-3-hydroxypropyl)-1-(4-(3-(methylsulfonamido)prop-1-ynyl)phenyl)-4-oxoazetidin-2-yl)phenoxy)-3,4,5-trihydroxytetrahydro-2H-pyran-2-carboxylic acid from human intestinal brush border membrane NPC1L1 by single tube filtration assay.

Experiment [5] concerns the target T1, NPC1-like intracellular cholesterol transporter 1. The experiment in a line: Displacement of [35S](2S,3S,4S,5R,6S)-6-(4-((2S,3R)-3-((S)-3-(4-fluorophenyl)-3-hydroxypropyl)-1-(4-(3-(methylsulfonamido)prop-1-ynyl)phenyl)-4-oxoazetidin-2-yl)phenoxy)-3,4,5-trihydroxytetrahydro-2H-pyran-2-carboxylic acid from recombinant rat NPC1L1 expressed in HEK cells by single tube filtration assay. It counts as cell-based, HEK293.

One may read the IC50 as the concentration that gives 50% inhibition.

T1 sequence (Q6T3U3 21-1331 limits assumed): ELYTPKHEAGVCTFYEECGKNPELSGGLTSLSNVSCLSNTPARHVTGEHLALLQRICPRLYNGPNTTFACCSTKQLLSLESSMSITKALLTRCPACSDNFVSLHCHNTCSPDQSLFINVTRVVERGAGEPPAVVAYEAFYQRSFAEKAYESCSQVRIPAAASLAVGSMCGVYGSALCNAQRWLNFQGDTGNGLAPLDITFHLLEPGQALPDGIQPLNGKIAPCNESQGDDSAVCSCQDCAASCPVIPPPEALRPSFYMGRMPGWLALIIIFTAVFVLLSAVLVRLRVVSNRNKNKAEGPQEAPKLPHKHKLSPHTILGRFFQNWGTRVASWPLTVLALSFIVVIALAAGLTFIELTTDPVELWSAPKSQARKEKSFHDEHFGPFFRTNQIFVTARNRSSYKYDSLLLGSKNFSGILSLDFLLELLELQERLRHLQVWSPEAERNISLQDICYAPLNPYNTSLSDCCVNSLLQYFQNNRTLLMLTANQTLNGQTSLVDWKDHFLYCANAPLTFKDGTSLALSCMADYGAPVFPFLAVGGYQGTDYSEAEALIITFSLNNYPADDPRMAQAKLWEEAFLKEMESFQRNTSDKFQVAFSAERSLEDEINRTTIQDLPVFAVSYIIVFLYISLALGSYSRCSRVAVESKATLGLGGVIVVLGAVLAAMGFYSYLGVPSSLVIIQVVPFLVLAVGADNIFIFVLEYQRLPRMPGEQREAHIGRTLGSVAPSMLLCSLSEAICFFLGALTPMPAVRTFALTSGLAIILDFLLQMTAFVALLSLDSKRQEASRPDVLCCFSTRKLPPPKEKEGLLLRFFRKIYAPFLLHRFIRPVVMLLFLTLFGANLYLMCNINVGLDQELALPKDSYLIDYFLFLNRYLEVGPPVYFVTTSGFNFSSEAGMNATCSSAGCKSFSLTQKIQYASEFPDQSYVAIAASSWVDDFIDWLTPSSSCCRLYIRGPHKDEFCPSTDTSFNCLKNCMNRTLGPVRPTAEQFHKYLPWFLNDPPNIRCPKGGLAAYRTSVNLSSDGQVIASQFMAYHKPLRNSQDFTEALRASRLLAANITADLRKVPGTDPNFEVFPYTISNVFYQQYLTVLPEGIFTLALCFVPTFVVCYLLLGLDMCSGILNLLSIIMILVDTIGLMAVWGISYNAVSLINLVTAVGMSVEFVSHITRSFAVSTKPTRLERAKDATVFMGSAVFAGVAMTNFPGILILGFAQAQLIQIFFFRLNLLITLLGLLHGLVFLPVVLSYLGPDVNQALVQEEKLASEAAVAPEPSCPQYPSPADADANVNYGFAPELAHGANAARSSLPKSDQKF
NPC1-like intracellular cholesterol transporter 1 (Mus musculus, UniProt Q6T3U4), sequence (Q6T3U4 21-1333 limits assumed): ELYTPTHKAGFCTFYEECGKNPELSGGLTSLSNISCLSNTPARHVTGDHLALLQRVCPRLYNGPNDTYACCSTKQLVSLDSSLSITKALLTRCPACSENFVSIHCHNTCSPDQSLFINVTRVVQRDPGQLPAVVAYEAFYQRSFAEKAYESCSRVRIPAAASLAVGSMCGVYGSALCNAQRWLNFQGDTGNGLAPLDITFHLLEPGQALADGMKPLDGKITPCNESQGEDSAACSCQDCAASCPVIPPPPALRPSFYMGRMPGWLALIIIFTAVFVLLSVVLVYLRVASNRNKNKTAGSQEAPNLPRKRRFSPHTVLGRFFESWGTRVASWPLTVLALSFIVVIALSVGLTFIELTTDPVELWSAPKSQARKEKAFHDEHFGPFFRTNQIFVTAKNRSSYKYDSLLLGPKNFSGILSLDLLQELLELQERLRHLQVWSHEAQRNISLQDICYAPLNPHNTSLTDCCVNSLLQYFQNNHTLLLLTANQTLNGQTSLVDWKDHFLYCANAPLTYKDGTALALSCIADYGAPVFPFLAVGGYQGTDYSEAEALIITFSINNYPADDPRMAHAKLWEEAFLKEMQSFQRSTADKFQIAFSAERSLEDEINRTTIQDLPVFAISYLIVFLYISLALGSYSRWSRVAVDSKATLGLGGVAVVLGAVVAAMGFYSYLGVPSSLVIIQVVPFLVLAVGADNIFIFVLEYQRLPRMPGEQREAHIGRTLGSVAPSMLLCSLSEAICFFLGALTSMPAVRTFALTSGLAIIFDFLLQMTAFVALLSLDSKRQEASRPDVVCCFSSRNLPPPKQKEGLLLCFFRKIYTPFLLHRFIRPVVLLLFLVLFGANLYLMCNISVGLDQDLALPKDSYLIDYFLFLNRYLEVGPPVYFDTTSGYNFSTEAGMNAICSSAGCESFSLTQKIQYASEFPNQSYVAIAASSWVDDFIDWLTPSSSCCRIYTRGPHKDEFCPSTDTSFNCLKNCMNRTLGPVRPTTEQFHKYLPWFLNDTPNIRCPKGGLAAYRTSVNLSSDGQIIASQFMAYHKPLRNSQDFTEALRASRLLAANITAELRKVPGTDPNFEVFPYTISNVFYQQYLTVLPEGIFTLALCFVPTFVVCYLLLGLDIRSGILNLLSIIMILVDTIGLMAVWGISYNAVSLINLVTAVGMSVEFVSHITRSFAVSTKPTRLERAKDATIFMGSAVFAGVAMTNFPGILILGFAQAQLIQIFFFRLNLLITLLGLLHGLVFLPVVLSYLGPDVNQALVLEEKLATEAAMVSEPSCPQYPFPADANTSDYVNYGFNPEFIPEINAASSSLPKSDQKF

On to `C[35S](=O)(=O)NCC#Cc1ccc(N2C(=O)[C@H](CC[C@H](O)c3ccc(F)cc3)[C@H]2c2ccc(O[C@@H]3O[C@H](C(=O)O)[C@@H](O)[C@H](O)[C@H]3O)cc2)cc1`, for which the IC50 is 4 nM in experiment [1]; 4 nM in experiment [2]; 44 nM in experiment [3]; 4 nM in experiment [4]; 4 nM in experiment [5].
